Test results taken from PMC5567169 (Emerging Microbes & Infections, 2017).

Columns and labels:
[1] = target: T1, FtlA (Francisella tularensis, UniProt A0AAI8BGE8)
T1 construct: gene FTL_0430

[2] = target: T1, FtlA; remark: listed apart in the source

T1 sequence (A0AAI8BGE8 1-293): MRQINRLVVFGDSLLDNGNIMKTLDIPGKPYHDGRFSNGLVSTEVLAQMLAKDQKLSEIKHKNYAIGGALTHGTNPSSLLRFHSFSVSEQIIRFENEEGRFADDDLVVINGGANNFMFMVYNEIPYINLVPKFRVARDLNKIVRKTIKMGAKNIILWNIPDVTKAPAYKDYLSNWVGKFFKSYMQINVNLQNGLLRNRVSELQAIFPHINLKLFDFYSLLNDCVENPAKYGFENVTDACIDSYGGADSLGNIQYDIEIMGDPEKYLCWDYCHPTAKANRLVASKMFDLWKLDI

SMILES	p-nitrophenyl ester hydrolysis by purified OMVs [1]	halo (clear zone) assay on agar plates [2]
CCCC(=O)Oc1ccc([N+](=O)[O-])cc1 [p-nitrophenyl butyrate (C4)]	OMVs of the wild-type LVS hydrolyzed p-nitrophenyl butyrate (C4) efficiently	–
CCCC(=O)OCC(COC(=O)CCC)OC(=O)CCC [tributyrin]	–	E. coli strain harboring the FtlA-expressing plasmid (pST2000) showed a clear zone of halo
